Experimental data reported in patent US20200030355A1, “COMBINATION THERAPY FOR TREATING CANCER” (Epizyme, Inc., priority 2014, published 2020).
Counter-ions that a name gives are not always drawn. Like-named read-outs stand apart in the source and are kept apart here.

What was measured:
[1] = test system: MOLM-13 cells; assay: EPZ-5676 300 nM 7-day pre-treatment, then second compound 72 hours, ATPLite, IC50 shift (Example 6); assay type: cell-based, human; conditions: 300 nM EPZ-5676 or DMSO 7-day pre-treatment, then 2nd compound 72 hours, Synergy = IC50 of 2nd compound decreased by 2-fold or more vs DMSO control
Description: (§1) Cells were then equilibrated in incubators for 24 hours before treatment with a second compound. Treated assay plates were incubated with a second compound for 72 hours. After this time, plates were developed for endpoint analysis using ATPLite to measure ATP content, which is used as an indicator of cell viability.
(§2) “N/D” means that IC50 of the second compound could not be determined for both conditions.

[2] = test system: SKM-1 cells; assay: as above; assay type: cell-based, human
Description: as §1, §2

[3] = SKM-1 cells, 300 nM EPZ-5676 or DMSO 7-day pre-treatment, then 2nd compound 72 hours, ATPLite, Synergy = IC50 of 2nd compound decreased by 2-fold or more vs DMSO control

Row | Compound | MOLM-13 (summary of combination study: EPZ-5676 + 2nd compound) [1] | SKM-1 (summary of combination study: EPZ-5676 + 2nd compound) [2, 3] | SKM-1 (summary of combination study: EPZ-5676 + 2nd compound) [2]
1 | C=C(c1ccc(C(=O)O)cc1)c1cc2c(cc1C)C(C)(C)CCC2(C)C [Bexarotene] | Synergy (considered synergistic if the IC50 value of the second compound decreased by 2-fold or more when EPZ-5676 was added as compared to the DMSO control) | Synergy (considered synergistic if the IC50 value of the second compound decreased by 2-fold or more when EPZ-5676 was added as compared to the DMSO control) | –
2 | O=C(/C=C/c1ccc(O)c(O)c1)OCCc1ccccc1 [CAPE] | Synergy (considered synergistic if the IC50 value of the second compound decreased by 2-fold or more when EPZ-5676 was added as compared to the DMSO control) | Synergy (considered synergistic if the IC50 value of the second compound decreased by 2-fold or more when EPZ-5676 was added as compared to the DMSO control) | –
3 | Cc1sc2c(c1C)C(c1ccc(Cl)cc1)=N[C@@H](CC(N)=O)c1nnc(C)n1-2 [CPI-203] | Synergy (considered synergistic if the IC50 value of the second compound decreased by 2-fold or more when EPZ-5676 was added as compared to the DMSO control) | Synergy (considered synergistic if the IC50 value of the second compound decreased by 2-fold or more when EPZ-5676 was added as compared to the DMSO control) | –
4 | COCc1c(C(C)C)nc(C(C)C)c(/C=C/[C@@H](O)C[C@@H](O)CC(=O)O)c1-c1ccc(F)cc1 [Cerivastatin Sodium] | Synergy (considered synergistic if the IC50 value of the second compound decreased by 2-fold or more when EPZ-5676 was added as compared to the DMSO control) | Synergy (considered synergistic if the IC50 value of the second compound decreased by 2-fold or more when EPZ-5676 was added as compared to the DMSO control) | –
5 | CS(=O)(=O)N1CCN(Cc2cc3nc(-c4cccc5[nH]ncc45)nc(N4CCOCC4)c3s2)CC1 [GDC-0941] | Synergy (considered synergistic if the IC50 value of the second compound decreased by 2-fold or more when EPZ-5676 was added as compared to the DMSO control) | Synergy (considered synergistic if the IC50 value of the second compound decreased by 2-fold or more when EPZ-5676 was added as compared to the DMSO control) | –
6 | COc1ccc(-c2ccc3c(N4CCOCC4)nc(N4C[C@@H](C)O[C@@H](C)C4)nc3n2)cc1CO [KU 0063794] | Synergy (considered synergistic if the IC50 value of the second compound decreased by 2-fold or more when EPZ-5676 was added as compared to the DMSO control) | Synergy (considered synergistic if the IC50 value of the second compound decreased by 2-fold or more when EPZ-5676 was added as compared to the DMSO control) | –
7 | O=C(c1cn(Cc2cncn2Cc2ccc(Br)cc2)cc1-c1cccc2ccccc12)N1CCOCC1 [LB42708] | Synergy (considered synergistic if the IC50 value of the second compound decreased by 2-fold or more when EPZ-5676 was added as compared to the DMSO control) | Synergy (considered synergistic if the IC50 value of the second compound decreased by 2-fold or more when EPZ-5676 was added as compared to the DMSO control) | –
8 | CN(C)C(=O)c1cc2cnc(Nc3ccc(N4CCNCC4)cn3)nc2n1C1CCCC1 [LEE011] | Synergy (considered synergistic if the IC50 value of the second compound decreased by 2-fold or more when EPZ-5676 was added as compared to the DMSO control) | Synergy (considered synergistic if the IC50 value of the second compound decreased by 2-fold or more when EPZ-5676 was added as compared to the DMSO control) | –
9 | Cc1sc2c(c1C)C(c1ccc(Cl)cc1)=N[C@@H](CC(=O)Nc1ccc(O)cc1)c1nnc(C)n1-2 [OTX015] | Synergy (considered synergistic if the IC50 value of the second compound decreased by 2-fold or more when EPZ-5676 was added as compared to the DMSO control) | Synergy (considered synergistic if the IC50 value of the second compound decreased by 2-fold or more when EPZ-5676 was added as compared to the DMSO control) | –
10 | COc1ccc(Cc2nccc3cc(OC)c(OC)cc23)cc1OC [Papaverine Hydrochloride] | – | Synergy (considered synergistic if the IC50 value of the second compound decreased by 2-fold or more when EPZ-5676 was added as compared to the DMSO control) | –
11 | COc1ccc(CCc2nc3cc(-c4c(C)noc4C)ccc3n2C[C@H](C)N2CCOCC2)cc1Cl [SGC-CBP30] | – | Synergy (considered synergistic if the IC50 value of the second compound decreased by 2-fold or more when EPZ-5676 was added as compared to the DMSO control) | –
12 | CCN(CC)CCNC(=O)c1c(C)[nH]c(/C=C2\C(=O)Nc3ccc(F)cc32)c1C [Sunitinib Malate] | – | 2.0 | –
13 | CC1=C(/C=C/C(C)=C/C=C/C(C)=C/C(=O)O)C(C)(C)CCC1 [Tretinoin] | Synergy (considered synergistic if the IC50 value of the second compound decreased by 2-fold or more when EPZ-5676 was added as compared to the DMSO control) | Synergy (considered synergistic if the IC50 value of the second compound decreased by 2-fold or more when EPZ-5676 was added as compared to the DMSO control) | –
14 | COc1cc2c(NC3CCN(C4CCCCC4)CC3)nc(N3CCCN(C(C)C)CC3)nc2cc1OCCCN1CCCCC1 [UNC 0646] | Synergy (considered synergistic if the IC50 value of the second compound decreased by 2-fold or more when EPZ-5676 was added as compared to the DMSO control) | Synergy (considered synergistic if the IC50 value of the second compound decreased by 2-fold or more when EPZ-5676 was added as compared to the DMSO control) | –
15 | Arsenic Trioxide | – | – | 2.0
